# Results as given in patent publication US12018278B2, “Methods for chemically induced lineage reprogramming” (BeiHao Stem Cell and Regenerative Medicine Research …, priority 2017, dated 2024).
# B1: GDNF: growth factor in Stage 2 neural induction medium, 20 ng/ml (protein, UniProt P39905 78-211, looked up)
# Glial cell line-derived …: SPDKQMAVLPRRERNRQAAAANPENSRGKGRRGQRGKNRGCVLTAIHLNVTDLGLGYETKEELIFRYCSGSCDAAETTYDKILKNLSRNRRLVSDKVGQACCRPIAFDDDLSFLDDNLVYHILRKHSAKRCGCI
# Experiments:
# fibroblasts = experiment: Stage 1 chemical induction of XEN-like primary colonies from fibroblasts; format: cell-based, mouse; conditions: replacing CHIR99021 with TD114-2 in the seven-compound cocktail; XEN-like state not altered
# Procedure: (§1) Stage 1 culture medium preparation: KnockOut DMEM (Invitrogen) supplemented with 10% KSR (Invitrogen), 10% FBS (Pan-Biotech), 1% GlutaMAX™-I (Invitrogen), 1% NEAA (Invitrogen), 0.055 mM β-ME (Sigma), 1% penicillin-streptomycin (Invitrogen), 100 ng/ml bFGF (Origene) containing the small-molecule cocktail: 0.5 mM VPA, 2-4 μM TD114-2 or 20 μM CHIR, 10 μM 616452, 10 μM Tranylcypromine, 10-50 μM Forskolin, 0.05 μM AM580 and 5 μM EPZ004777 (VT6TFAE or VC6TFAE). For mouse adult lung fibroblasts (MAFs) induction, 1 μM CH55 and 50 μg/ml Vitamin C (VC) were added enhance the induction efficiency.
# TauEGFP fibroblasts were prepared as previously reported (Li et al., Cell Stem Cell, 17:195-203 (2015)). Fibroblasts were seeded at a density of 30,000-50,000 cells per well of a 6-well plate or 300,000 cells per 100 mm dish (day −1) (Fibroblast medium−DMEM basal medium+10% FBS++beta-Me(0.055 mM)+1% PS). The culture plates or dishes were precoated with 0.1% gelatin.
# The medium was changed to Stage 1 culture medium (Day 0). For stage 1 chemical reprogramming, cells were induced by the culture medium containing 0.5 mM VPA, 2-4 μM TD114-2 or 20 μM CHIR, 10 μM 616452, 10 μM Tranylcypromine, 10-50 μM Forskolin, 0.05 μM AM580 and 5 μM EPZ004777(VT6TFAE or VC6TFAE)) for 12 days. Culture medium was refreshed every 4 days during the inducing period. XEN-like colonies were formed at about day 6-8.
# XEN-like colonies = experiment: Long-term passaging and expansion of XEN-like cells; format: cell-based, mouse; conditions: TD114-2 based culture condition; ratio 1:20-30 every 3-4 days
# Source text: Day 12 induced)(EN-like colonies (P0) were trypsinized from whole well and re-plated onto gelatin-coated culture plates at a ratio of 1:10-20 in stage 1 medium for the first passage. After the)(EN-like cells at Passage 1 become confluence, passage the cells at a ratio of 1:20-30 every 3-4 days in stage 1 medium. The XEN-like cells can be long term expanded at stage 1 medium for more than 20 passages with lineage specifying potentials.
# For a single primary XEN-like colony passaging, feeder layers of mitomycin C-treated MEFs are needed. Pick up the a single primary XEN-like colony with 1 ml syringe, trypsinize for 5 min, and neutralize with stage 1 culture medium, then pipette up and down to obtain a single-cell suspension. Seed the cell suspension on feeder layers with stage 1 culture medium for further expansion. The subsequent passaging of XEN-like cells can be feeder-free.
# XEN-like cells [1] = experiment: Stage 2 neural induction of TauEGFP-positive cells from XEN-like cells (FACS); format: cell-based, mouse; conditions: 0.1 μM LDN193189 and 5 μM SB431542 added to FCD; not essential to induce neurons
# Procedure: On day 12, cells were switched into stage 2 neural specification medium. After 8-12 days induction by the stage 2 culture medium, TauEGFP-positive colonies were generated. The TauEGFP-positive colonies were further re-plated to co-culture with primary astrocytes or primary neurons for maturation.
# The induced efficiency of the TauEGFP-positive cells was estimated using a FACS Calibur flow cytometer (Becton Dickinson), and the flow cytometry data were analyzed using FlowJo. For intracellular flow cytometry analyses, single-cell suspensions were stained with antibodies and analyzed using a BD FACSCalibur.
# [2] = system: induced TauEGFP-positive cells; experiment: Whole-cell patch clamp recordings on induced TauEGFP-positive neurons; format: cell-based, mouse; conditions: for spontaneous excitatory postsynaptic currents (EPSCs): 20 μM CNQX plus 50 μM AP5, after co-culturing with primary astrocytes
# Procedure: Whole-cell patch clamp recordings were performed as previously described (Li et al., Cell Stem Cell, 17:195-203 (2015)). The artificial cerebrospinal fluid extracellular solution contained (in mM) 141 NaCl, 2.5 KCl, 1.3 MgCl2, 2.4 CaCl2, 1.25 NaH2PO4, 10 glucose and 10 HEPES, the pH was adjusted to 7.4 with NaOH. Patch pipettes were pulled (˜5 MΩ tip resistance) with a P97 micropipette puller (Sutter Instruments) filled with internal pipette solution contained (in mM) 140 potassium gluconate, 1 CaCl2, 10 EGTA, 2 MgCl2, 5 Na2ATP, and 10 HEPES, the pH was adjusted to 7.4 with KOH. Patch-clamp recordings were taken using an EPC-10 amplifier (HEKA) with PatchMaster. Cell membrane potentials were held typically at −80 mV and depolarized to test potentials from −80 to +80 mV in 10 mV increments to record the sodium and potassium currents. The sample was 20 μs and sweep intervals were 2 s. For current-clamp recordings, a hyperpolarized current was injected into chemical neurons to membrane potentials around −70 mV. Action potentials were elicited by step-depolarized currents with sweep intervals of 3 s. The cells were held at 0 pA to record the resting membrane potentials. In current-clamp mode, the sample frequency was 25 kHz. Induced neurons identified by GFP were co-cultured with mouse primary astrocytes to record spontaneous excitatory postsynaptic currents (sEPSCs) or spontaneous inhibitory postsynaptic currents (sIPSCs). The induced neurons were held at a holding potential of −70 mV (close to the reversal potential of chloride) and 0 mV, respectively. The data were continuously digitized at 20 kHz. For neurotransmitter response, Glutamate (100 μM, Sigma-Aldrich) was dissolved in ACSF, loaded into a pipette, and puffed onto hciN cells using a picosprizer III (Parker Instrument) with 10 psi and […]. All recordings were conducted at room temperature.
# passaged XEN-like cells = experiment: Toxicity to passaged XEN-like cells in stage 2 neural induction medium; format: cell-based, mouse; conditions: 50 μM
# Procedure: For neural induction from passaged XEN-like cells, cells were plated at 50,000-100,000 cells per well of a 6-well plate (with gelatin-coated) in stage 1 medium (day 0). Until passaged cells become 70-80% confluence on day2 or day3, switch the XEN-like cells into stage 2 neural induction medium. After 12-20 days, TauEGFP-positive colonies emerged. Considering that FSK used at high concentration 50 μM was toxic to passaged XEN-like cells at stage 2, a concentration of 10-20 μM in neural induction culture medium on passaged XEN-like cells is preferred.
# CeXEN cells = experiment: Toxicity to CeXEN cells in stage 2 neural induction medium; format: cell-based, mouse; conditions: 50 μM
# Procedure: CeXEN (chemically-derived eXEN) cells with TauEGFP reporter were derived from E3.5 blastocysts using stage 1 culture medium as previously reported (Zhao et al., Cell, 163:1678-1691 (2015)). Medium was changed every day and the cells were passaged at 1:20 to 1:30 every 3 days.
# 1. For chemical induction, CeXEN cells were plated at 50,000-100,000 cells per well of a 6-well plate (with gelatin-coated) in stage 1 medium (day 0).
# 2. On day2 or day3 until 70-80% confluence, cells were switched into stage 2 neural induction culture medium for 12-20 days and TauEGFP-positive cells were generated.
# A relatively low initial cell density is beneficial for lineage induction from passaged CeXEN cells since the high proliferation rate of CeXEN cells. Considering that FSK used at high concentration 50 μM was toxic to CeXEN cells at stage 2, a concentration of 10-20 μM in neural induction culture medium on CeXEN cells is preferred.
# [3] = system: mouse adult lung fibroblasts (MAFs); experiment: Induction of XEN-like cells from adult fibroblasts; format: cell-based; conditions: vitamin C (50 μg/ml) and CH55 (1 μM) added together to stage 1 medium; 12 days' induction
# Procedure: as §1, with “VC6TFAE).” for “VC6TFAE). For mouse adult lung fibroblasts (MAFs) induction, 1 μM CH55 and 50 μg/ml Vitamin C (VC) were added enhance the induction efficiency.”
# XEN-like cells [4] = experiment: qRT-PCR of neural, fibroblast and XEN genes in the absence of single Stage 2 medium components; format: cell-based, mouse; conditions: genes examined in the absence of the factor; FIG. 1F
molecule,measurement,setting,value
"O=C1NC(=O)C2=C1c1cn(c3ccccc13)CCOCCOCCOCCOCCn1cc2c2ccccc21 [TD114-2, 10,11,13,14,16,17,19,20,22,23-decahydro-9,4:24, 29-dimetheno-1H-dibenzo[n,t] pyrrolo[3,4-q] [1,4,7,10,13,22]-tetraoxadiazacyclotetracosine-31,33(32H) dione]","yield of the primary colonies, enhancement",fibroblasts,3 fold
same,"long term expansion of XEN-like colonies, passages tested",XEN-like colonies,at least 20 passages
"c1ccc2c(-c3cnn4cc(-c5ccc(N6CCNCC6)cc5)cnc34)ccnc2c1 [LDN193189, 4-(6-(4-(piperazin-1-yl)phenyl)pyrazolo[1,5-a]pyrimidin-3-yl)quinolone]",effect on neuron induction efficiency in stage 2 medium,XEN-like cells [1],favorable to enhance the induction efficiency
"NC(CCCP(=O)(O)O)C(=O)O (stereo not shown) [AP5, 2-amino-5-phosphonovaleric acid]",spontaneous excitatory postsynaptic currents (EPSCs),[2],blocked
"N#Cc1cc2[nH]c(=O)c(=O)[nH]c2cc1[N+](=O)[O-] [CNQX, 6-cyano-1007-nitroquinoxaline-2,3-dione]",spontaneous excitatory postsynaptic currents (EPSCs),[2],blocked
"NC1=N[C@H](O)[C@H]2[C@H]3O[C@]4(O)O[C@@H]([C@@H](O)[C@@]2(N1)[C@@H]4O)[C@]3(O)CO [TTX, tetrodotoxin]","sodium currents (inward currents, voltage-clamp)",[2],blocked
C=C[C@@]1(C)CC(=O)[C@]2(O)[C@@]3(C)[C@@H](O)CCC(C)(C)[C@@H]3[C@H](O)[C@H](OC(C)=O)[C@@]2(C)O1 [Forskolin],toxicity to passaged XEN-like cells at stage 2,passaged XEN-like cells,toxic
same,toxicity to CeXEN cells at stage 2,CeXEN cells,toxic
"NC(=O)c1ccc(-c2nc(-c3ccc4c(c3)OCO4)c(-c3ccccn3)[nH]2)cc1 [SB431542, 4-[4-(1,3-benzodioxol-5-yl)-5-(2-pyridinyl)-1H-imidazol-2-yl]benzamide]",effect on neuron induction efficiency in stage 2 medium,XEN-like cells [1],favorable to enhance the induction efficiency
O=C1O[C@H]([C@@H](O)CO)C(O)=C1O [vitamin C],efficiency of generating XEN-like cells from adult fibroblasts,[3],significantly improved
CC(C)(C)c1cc(C(=O)/C=C/c2ccc(C(=O)O)cc2)cc(C(C)(C)C)c1 [CH55],efficiency of generating XEN-like cells from adult fibroblasts,[3],significantly improved
N[C@@H](CCC(=O)O)C(=O)O [Glutamate],membrane currents on focal application,"[2]; 100 μM, focal application",induction of inward membrane currents
B1,"role of the stage 2 medium component for neural-, fibroblast- and XEN-specific gene expression",XEN-like cells [4],important for inducing neuronal mater and functional genes
